{"source": "patent US20210261495A1", "about": "“COMPOSITIONS AND METHODS OF USING ITACONIC ACID DERIVATIVES” (ERGON PHARMACEUTICALS, LLC, priority 2018, published 2021)", "key": {"hCD8^+ T cells [1]": {"test_system": "hCD8^+ T cells", "test": "hCD8+ T cell differentiation into effector T cells: IFNγ release, ELISA", "assay_type": "cell-based, human", "conditions": "for IFNγ (% Control): 24 hrs, normalized per number of cells", "experimental": "(§1) Differentiation of T Cells. The ability of T cells to differentiate from a naïve to an effector state was assessed by measuring the levels of IFNγ or GZMB synthesis following activation of the cells using a cocktail of anti-CD2/anti-CD3/anti-CD28 antibodies. Expression of IFNγ, GZMB, and other effector cytokines was measured by determining their concentration in the conditioned media 24-72 hrs after initiation of activation or by estimating the % cells expressing these cytokines using fluorescence-activated cell sorting (FACS).\n(§2) Augmentation of hCD8^+ T Cell Differentiation into Effector T Cells. Naïve CD8+ T cells were isolated from human buffy coats using magnetic separation and the appropriate kit from Miltenyi Biotec. Cells were then activated using a cocktail of anti-CD2/anti-CD3/anti-CD28 antibodies. Differentiation of the cells into effector T cells was assessed by determining the levels of IFNγ and GZMB released into the media at 24 and 72 hrs, respectively using appropriate ELISA kits. Cytokine concentrations were normalized per number of cells present and expressed as % Untreated Control."}, "M-MDSCs": {"test_system": "M-MDSCs", "test": "Tumor immunophenotyping of CT26 tumors (MDSCs)", "assay_type": "in vivo, mice", "conditions": "0.2 mg/kg ip, CT26 tumors 250-1500 mm^3", "experimental": "Tumor Immunophenotyping. To determine the effect of a therapeutic agent on a specific immune cell type in vivo, syngeneic tumor models were employed. In a typical experiment, tumors were allowed to grow to a certain size and were then treated for a specific number of days prior to termination. At the end of the experiment, animals were euthanized, tumors were excised and single cell suspensions were immediately obtained through dissociation of tumor tissues with collagenase. Tumor cell suspensions were then subject to FACS analysis in order to determine the presence of various biomarkers.\nTumor Immunophenotyping of CT26 Tumors. CT26-tumor bearing mice treated with either vehicle control or 0.2 mg/kg Compound (6) (ip, twice a day) were euthanized when the tumors had reached a size of 250-1500 mm^3. Tumors were excised and single cell suspensions were obtained using the tumor dissociation kit from Miltenyi Biotec per manufacturer's instructions. The suspensions were analyzed for the presence of MDSCs."}, "H3K4me3": {"test_system": "H3K4me3", "test": "Epigenetic modification: H3K4me3 Western immunoblotting in TCR-activated hCD8+ T cells", "assay_type": "cell-based, human", "conditions": "10 μM, 72 hrs", "experimental": "Epigenetic Modifications. The ability of a therapeutic agent to alter acetylation and/or methylation of histones was assessed by Western Immunoblotting. Briefly, immune and other type cells were collected after being exposed to the therapeutic agent or vehicle control for a specific period of time, typically 24-72 hrs. They were then lysed and cell lysates from control and treated cells contained equal amounts of proteins were subjected to SDS-PAGE electrophoresis. The presence of acetylated and methylated histone sites was determined by Western Immunoblotting using appropriate antibodies.\nEpigenetic Modification. TCR-activated hCD8^+ T cells were exposed to 0 or 10 μM Compound (6) for 72 hrs prior to lysing. Equal amounts of cell lysates were subjected to gel electrophoresis and Western immunoblotting against trimethylated lysine site 4 of histone 3 (H3K4me3). The experiment also included cell lysates from naïve cells. Image J was used for protein quantification. Western immunoblotting against histone 3 (H3) was also performed for normalization purposes. […] Exposure of the hCD8^+ T cells to 10 μM Compound (6) led to the depletion of trimethylated H3K4. H3K4me3 is commonly associated with activation of transcription."}, "TNFα": {"test_system": "TNFα", "test": "In vitro inflammation assay: TNFα secretion from LPS-stimulated hMDMs, ELISA", "assay_type": "cell-based, human", "conditions": "concentrations ≥500 μM, 1 μg/mL LPS, 6 h", "experimental": "In Vitro Inflammation Assay. In vitro inflammation was assessed by measuring the concentration of TNFα in the conditioned media of macrophages stimulated with 0.1-1 μg/mL LPS in the presence or absence of the compound of interest after 4-6 hrs.\nInhibition of TNFα secretion. hMDMs were pretreated with various concentrations of Compound (6) for 15 min and then stimulated with 1 μg/mL LPS. Conditioned media were collected 6 h later and TNFα concentrations were determined by ELISA."}, "[2]": {"test_system": "C6-IRG1-9 rat glioma cells", "test": "C6-IRG1-9 rat glioma cell proliferation, CyQuant", "assay_type": "cell-based", "conditions": "various concentrations, 48 hrs", "experimental": "Tumor Cell Proliferation Assay. This assay was used to assess the anti-tumor properties of a therapeutic agent in vitro. In a typical proliferation assay, cells were cultured to near confluency in the appropriate media. Subsequently, the cells were trypsinized and plated onto 96-well plates at 2,000 or 5,000 cell per well. The cells were cultured for 48 to 96 hours in the presence or absence of the therapeutic agent. Cell proliferation was then determined using spectrophotometry (MTT assay, BrdU assay) or fluorimetry (Cyquant assay).\nInhibition of C6-IRG1-9 Rat Glioma cell proliferation. C6-IRG1-9 cells are rat C6 glioma cells that have been transfected to overexpress IRG1. Overexpression of IRG1 is maintained by culturing the cells in DMEM media containing 0.55 μg/mL puromycin. For the proliferation assays, the cells were plated onto a 96-well plate at a density of 2,000 cells/well. The cells were allowed to adhere overnight; they were subsequently treated with various concentrations of compounds of Formula (2) for 48 hrs. At the end of the incubation period, the number of cells is assessed using the CyQuant Cell Proliferation kit (Thermo Fisher) according to the manufacturer's instructions. The results, shown in FIG. 3, indicate that compounds of Formula (2) are able to reduce or abrogate growth of C6-IRG1-9 cells. In FIG. 3, cell proliferation is expressed as % Untreated Control, defined as: […]\nwhere t is the number of cells present in a treated well at the end of the incubation period, c is the number of cells present in an untreated well at the end of the incubation period, and s is the initial number of cells in the wells prior to initiation of treatment."}, "hCD8^+ T cells [3]": {"test_system": "hCD8^+ T cells", "test": "hCD8+ T cell differentiation into effector T cells: GZMB release, ELISA", "assay_type": "cell-based, human", "conditions": "for Granzyme B (% Control): 72 hrs, normalized per number of cells", "experimental": "as §1, §2"}}}
{"compound": "O=C(O)/C(=C\\c1ccc(F)cc1)C(Cc1ccccc1)C(=O)O", "note": "(stereo not drawn) [Compound (6), 2-benzyl-3-[(4-flurophenyl)methylidene]butanedioic acid]", "values": [{"measurement": "IFNγ (% Control)", "setting": "hCD8^+ T cells [1]; 1 nM", "value": 129, "unit": "% Control"}, {"measurement": "IFNγ (% Control)", "setting": "hCD8^+ T cells [1]; 10 nM", "value": 510, "unit": "% Control"}, {"measurement": "IFNγ (% Control)", "setting": "hCD8^+ T cells [1]; 100 nM", "value": 274, "unit": "% Control"}, {"measurement": "IFNγ (% Control)", "setting": "hCD8^+ T cells [1]; 10 μM", "value": 370, "unit": "% Control"}, {"measurement": "IFNγ (% Control)", "setting": "hCD8^+ T cells [1]; 100 μM", "value": 198, "unit": "% Control"}, {"measurement": "IFNγ (% Control)", "setting": "hCD8^+ T cells [1]; 500 μM", "value": 47, "unit": "% Control"}, {"measurement": "IFNγ synthesis following TCR activation", "setting": "hCD8^+ T cells [1]; high (>100 μM) concentrations", "value": "decrease"}, {"measurement": "synthesis of INFγ following TCR activation", "setting": "hCD8^+ T cells [1]; low concentrations, 0.1 nM to 100 μM", "value": "increased synthesis"}, {"measurement": "intratumoral frequency of M-MDSCs", "setting": "M-MDSCs", "value": "significantly reduces"}, {"measurement": "trimethylated H3K4 (H3K4me3/H3)", "setting": "H3K4me3", "value": "depletion"}, {"measurement": "secretion of TNFα", "setting": "TNFα", "value": "reduced secretion"}, {"measurement": "proliferation of C6-IRG1-9 rat glioma cells", "setting": "[2]", "value": "inhibition of proliferation"}, {"measurement": "Granzyme B (% Control)", "setting": "hCD8^+ T cells [3]; 0.1 nM", "value": 117, "unit": "% Control"}, {"measurement": "Granzyme B (% Control)", "setting": "hCD8^+ T cells [3]; 1 nM", "value": 165, "unit": "% Control"}, {"measurement": "Granzyme B (% Control)", "setting": "hCD8^+ T cells [3]; 10 nM", "value": 504, "unit": "% Control"}, {"measurement": "Granzyme B (% Control)", "setting": "hCD8^+ T cells [3]; 100 nM", "value": 276, "unit": "% Control"}, {"measurement": "Granzyme B (% Control)", "setting": "hCD8^+ T cells [3]; 10 μM", "value": 360, "unit": "% Control"}, {"measurement": "production of GZMB", "setting": "hCD8^+ T cells [3]; low concentrations", "value": "increase production"}]}
